Series [1] deals with E. coli Neumann. The series can be described thus: minimal inhibitory concentrations (MICs) by agar dilution method. Format: cell-based. On the procedure:
The minimal inhibitory concentrations (MICs) were determined by agar dilution method. Series of agar plates with Iso-Sensitest agar (Oxoid) were prepared which contained the test substances at twofold increasing concentrations. The agar plates were inoculated by using a multipoint inoculator (Denley). For this purpose, overnight cultures of the bacterial test strains were diluted appropriately so that each inoculation point contained approx. 10^4 cells. The inoculated agar plates were incubated at 37° C. and bacterial growth was read after 20 hours.

Series [2] concerns E. coli Neumann. The series can be described thus: therapeutic efficacy: survival of female CF1 mice infected intraperitoneally with E. coli Neumann. It is filed as in vivo. Particulars: for survival of the animals (number of 10 mice): single dose 30 min. after infection, until sixth day. The method, then:
To measure the therapeutic efficacy, 10 female CF1 mice each group were infected by intraperitoneal injection of 3×10^7 cells of E. coli Neumann. For treatment, one single dose of drug was given intravenously 30 min. after the infection. The survival of the animals was recorded daily until the sixth day after infection: […]

Series [3] in a line: stability of B in the presence of peptidases or human plasma. Format: in vitro ADME. Particulars: not cleaved back to A.
The nature of series [4]: solubility in water and water containing solvents. Particulars: for solubility: water.
A short description of series [5]: stability of 4, 6 and 12 in mice plasma at 37° C. It is filed as in vitro ADME. Conditions: for hydrolysis to 1: mice plasma; for kobs / half-life: mice, heparin; for half-life: mouse, plasma. The method, then: (§1) A solution of approximately 2.0 mg of 4, 6 or 12 in 100 μl of water was added to 2 ml of either human or mice plasma. The resulting solution was placed in water bath at 37° C. Samples were withdrawn at appropriate time intervals and proteins were precipitated with 250 μl of acetonitrile, vortexed for 30 sec., then centrifuged for 10 min at 2200 rpm. […] Apparent first-order rate constants were obtained by plotting the disappearance the derivatives 4, 6 or 12 versus time on semilogarithmic plot and the results are shown in table 12.

A short description of series [6]: stability of 4, 6 or 12 in aqueous buffered solutions (μ = 0.15). Format: physicochemical. The method, then:
The hydrolysis of 4, 6 or 12 in aqueous buffered solutions at various pH and at an ionic strength of 0.15 (NaCl) were measured by analyzing aliquots at appropriate intervals using HPLC. In the HPLC analysis both the disappearance of 4, 6 or 12 and the appearance of 1 were monitored. Rate constants were calculated from the first-order plots of the disappearance of 4, 6 or 12 versus time.

The nature of series [7]: stability of 4, 6 and 12 in human plasma at 37° C. Format: in vitro ADME. Particulars: for hydrolysis to 1: human plasma; for half-life: plasma. On the procedure:
as §1

The nature of series [8]: hydrolysis of 14 and 4a in human plasma at 37.0° C. Format: in vitro ADME. On the procedure:
(§2) The hydrolysis of 14 in human plasma was studied. A solution containing 2.0 mg of 14 in 200 μl of water was mixed with 2 ml of human plasma (sodium citrate was used as anticoagulant). The resulting mixture was placed in water bath at 37.0° C. Samples were withdrawn at appropriate time intervals and proteins were precipitated with 250 μl of acetonitrile, vortexed for 30 sec, the centrifuged for 15 min at 2200 rpm. A 100 μl sample of the supernatent was mixed with 250 μl of H2 O and the resulting solution was analyzed by HPLC. […] The chemical hydrolysis of 14 (5.5×10^-5 M) in 0.05M phosphate buffer pH 7.4 and ionic strength of 0.15M (NaCl) at 37.0° C. was studied. Samples were withdrawn and analyzed at appropriate time intervals.

Series [9] in a line: chemical hydrolysis of 14 in 0.05M phosphate buffer pH 7.4 at 37.0° C. It is filed as physicochemical. Conditions: 5.5×10^-5 M, 0.05M phosphate pH 7.4, ionic strength 0.15M (NaCl). The method, then:
as §2

Setting [10] is: Acetate (0.05M), 25° C., pH 5.0, initial conc. 0.024 (4, 12), 0.018 (6) mg/ml.
The mark [11] stands for this setting: Phosphate (0.05M), 37° C., pH 7.4, initial conc. 0.02 mg/ml.
Where [12] appears, read: acetate buffer (0.05m), pH 5, Acetate (0.05M), 25° C., pH 5.0, initial conc. 0.024 (4, 12), 0.018 (6) mg/ml, 6 and 12 estimated values (*).
The mark [13] stands for this setting: phosphate buffer (0.05m), pH 7.4, Phosphate (0.05M), 25° C., pH 7.4, initial conc. 0.02 mg/ml, 4 estimated value (*).
Where [14] appears, read: phosphate buffer (0.05m), pH 7.4, Phosphate (0.05M), 37° C., pH 7.4, initial conc. 0.02 mg/ml.
Setting [15] is: water, pH 4.5, Water, 25° C., initial conc. 10.0 mg/ml, pH 4.5 (4), 4.31 (6), 4.54 (12), estimated values (*).
The mark [16] stands for this setting: water, pH 5.9, Water, 25° C., initial conc. 0.1 mg/ml, pH 5.9 (4), 5.46 (6), 6.1 (12), estimated values (*).
The mark [17] stands for this setting: concentration of obtainable aqueous solutions, hydrochloric acid salts (Example 5).
Where [18] appears, read: Phosphate (0.05M), 25° C., pH 7.4, initial conc. 0.02 mg/ml.
Where [19] appears, read: Water, 25° C., initial conc. 0.1 mg/ml, pH 5.46 (6), 6.1 (12).
[20] abbreviates: Water, 25° C., initial conc. 10.0 mg/ml, pH 4.31 (6), 4.54 (12).

This is an account of results in patent publication US4980343A, “Aminooxodihydroisoindoloquinazoline carcinostatic agents” (Bayer Aktiengesellschaft, priority 1989, dated 1990).

Converted amounts (≈) assume the structure as drawn. “Also recorded” adds a separate entry of the source. Structures can show the parent of a compound that is named as a salt.

In the series with E. coli Neumann [1] (Escherichia coli, E. coli Neumann, agar dilution, Iso-Sensitest agar, 37° C., 20 hours), `CC(N)C(=O)N1CCN(c2cc3c(cc2F)c(=O)c(C(=O)O)cn3C2CC2)CC1` (centres unmarked) [B] registered a minimum inhibitory concentration (MIC) of 0.5 µg/mL (≈ 1.24 µM). For the same molecule, the “effectiveness against E. coli Neumann in vitro” value with E. coli Neumann [1] (in words) is reported as “only poorly effective”. Also, the “survival of the animals (number of 10 mice)” value in the series on E. coli Neumann [2] (0.06 mg/kg i.v.) was 0; in the series on E. coli Neumann [2] (0.25 mg/kg i.v.), 1; in the series with E. coli Neumann [2] (0.5 mg/kg i.v.), 1. Further, the “effectiveness against E. coli Neumann in vivo” value in the series on E. coli Neumann [2] (in words) is on record as “only poorly effective”. Also, the “stability in the presence of peptidases or human plasma” value in series [3] is given as “stable”.
Consider `Nc1ccc2c(c1)CN1C(=O)c3ccccc3C1=N2` [Compound 1, aminooxodihydroisoindoloquinazoline], for which the “solubility in water (in words)” value in series [4] (water containing solvents) is “only poorly soluble; also recorded: nearly insoluble”.
On to `C[C@H](N)C(=O)Nc1ccc2c(c1)CN1C(=O)c3ccccc3C1=N2` [Compound 4, N-l-alanyl-AQ-monohydrochloride], for which the “hydrolysis to 1” value in series [5] and in series [7] was “quantitative hydrolysis” throughout. The kobs was 0.033 min⁻¹ in series [5]; 0.0016 h⁻¹ in series [6] (setting [10]); 0.0044 h⁻¹ in series [6] (setting [11]); 0.025 min⁻¹ in series [7] (human 1, citrate); 0.022 min⁻¹ in series [7] (human 2, citrate). Besides, the half-life was 0.355 h in series [5]; 17.8 days in series [6] (setting [12]); greater than 8.33 days in series [6] (setting [13]); 6.58 days in series [6] (setting [14]); greater than 20 days in [6] (setting [15]); greater than 20 days in [6] (setting [16]). The half-life in series [7] (human, human 1, citrate) stood at 0.46 h; in [7] (human, human 2, citrate), 0.512 h. For the same molecule, the solubility in [4] (solubility in water, hydrochloric acid salt, water (Example 5)) is greater than 25 mg/mL.
Turning to `C[C@H](N)C(=O)Nc1ccc2c(c1)CN1C(=O)c3ccccc3C1=N2` [Compound 4a, N-l-alanyl-AQ], in series [8] (human plasma, FIG. 1, 4a formed from 14), the half-life is roughly 0.333 h.
Take `CC(C)C[C@H](N)C(=O)Nc1ccc2c(c1)CN1C(=O)c3ccccc3C1=N2` [Compound 6, N-l-leucine derivative of AQ]: the “hydrolysis to 1” value in series [5] and in series [7] was “quantitative hydrolysis” throughout. Moreover, the kobs in series [5] came to 0.0185 min⁻¹; in series [6] (setting [10]), 0.0011 h⁻¹; in series [6] (setting [18]), 0.00411 h⁻¹; in [6] (setting [11]), 0.0086 h⁻¹; in [6] (setting [19]), 0.00061 h⁻¹; in series [6] (setting [20]) it was 0.000146 h⁻¹. In series [7] (human, citrate), this molecule had a kobs of 0.0057 min⁻¹. Besides, the half-life is 0.623 h in series [5]; 26 days in [6] (setting [12]); 7.03 days in series [6] (setting [13]); 3.36 days in series [6] (setting [14]); 198 days in series [6] (setting [15]); 47 days in series [6] (setting [16]). This molecule also had a half-life in series [7] (human, citrate) of 2.02 h. In addition, the solubility in [4] (setting [17]) was greater than 25 mg/mL.
As to `NCCCC[C@H](N)C(=O)Nc1ccc2c(c1)CN1C(=O)c3ccccc3C1=N2` [Compound 12, N-l-lysine dihydrochloride derivative of AQ], the “hydrolysis to 1” value in [5] and in [7] was “quantitative hydrolysis” each time. For the same molecule, the kobs in [5] was found to be 0.0048 min⁻¹; in series [6] (setting [10]), 0.00115 h⁻¹; in series [6] (setting [18]), 0.00258 h⁻¹; in series [6] (setting [11]), 0.0103 h⁻¹; in series [6] (setting [19]), 0.00078 h⁻¹; in series [6] (setting [20]), 0.000267 h⁻¹. In addition, in [7] (human, citrate), the kobs turned out to be 0.005 min⁻¹. For the same molecule, the half-life in series [5] was 2.43 h; in series [6] (setting [12]) it was 25 days; in series [6] (setting [13]) it was 11.2 days; in [6] (setting [14]), 2.8 days; in series [6] (setting [15]) it was 108 days; in [6] (setting [16]), 37 days. Moreover, in [7] (human, citrate), the half-life was 2.31 h. Also, the solubility in series [4] (setting [17]) is greater than 25 mg/mL; in [4] (water solubility, dihydrochloride, freeze dried (Example 3)), greater than 20 mg/mL.
`C[C@H](NC(=O)CN)C(=O)Nc1ccc2c(c1)CN1C(=O)c3ccccc3C1=N2` [Compound 14, L-Gly-Ala-derivative of AQ] had a half-life at 55 µM in series [9] of 60 h. In addition, the half-life in series [8] (human plasma (citrate), 2.0 mg of 14 in 200 μl water + 2 ml plasma, read-out: half life of hydrolysis of 14 to 4a) amounted to 0.233 ± 0.0167 h.
